Test results published in ChEMBL document CHEMBL1201862, “PubChem BioAssay data set” (2004).
Active and inactive are the calls of the source.

Legend:
[1] = tested on: HEK293; test: inhibitors of LMP1-driven NF-kB reporter, dose response, cell-based, HEK293, luciferase, cherry-pick (AID 588343); type: functional; conditions: Homo sapiens
[2] = molecular target: Latent membrane protein 1 (Human herpesvirus 4 (strain B95-8), UniProt P03230); test: TES1-eGFP NF-kB reporter inhibition versus Tet-On dsRED, dose response, selectivity assay for LMP1 NF-kB inhibitor project, imaging, HEK293T, dual-color eGFP/dsRED, cherry-picks (AID 588398); type: functional, cell-based
[3] = molecular target: T1, Corticotropin-releasing factor receptor 2/Corticotropin-releasing factor-binding protein (Homo sapiens, UniProt P24387+Q13324); test: Dose Response confirmation of uHTS hits for small molecule antagonists of the CRF-binding protein and CRF-R2 receptor complex.; type: functional; conditions: read-out: IC50_Mean
T1 sequence (Q13324 whole entry): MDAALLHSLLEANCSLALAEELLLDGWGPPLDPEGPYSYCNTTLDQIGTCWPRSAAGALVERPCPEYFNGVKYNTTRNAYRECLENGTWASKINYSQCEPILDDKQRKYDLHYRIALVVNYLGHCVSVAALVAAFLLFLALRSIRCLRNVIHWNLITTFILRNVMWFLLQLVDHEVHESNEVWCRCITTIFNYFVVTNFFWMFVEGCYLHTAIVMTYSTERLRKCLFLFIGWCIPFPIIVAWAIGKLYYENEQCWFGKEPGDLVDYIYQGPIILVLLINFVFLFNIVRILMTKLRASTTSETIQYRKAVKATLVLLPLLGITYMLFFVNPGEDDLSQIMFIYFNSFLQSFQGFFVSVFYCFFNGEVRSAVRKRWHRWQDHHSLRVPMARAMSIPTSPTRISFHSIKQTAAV
T1 sequence (P24387 whole entry): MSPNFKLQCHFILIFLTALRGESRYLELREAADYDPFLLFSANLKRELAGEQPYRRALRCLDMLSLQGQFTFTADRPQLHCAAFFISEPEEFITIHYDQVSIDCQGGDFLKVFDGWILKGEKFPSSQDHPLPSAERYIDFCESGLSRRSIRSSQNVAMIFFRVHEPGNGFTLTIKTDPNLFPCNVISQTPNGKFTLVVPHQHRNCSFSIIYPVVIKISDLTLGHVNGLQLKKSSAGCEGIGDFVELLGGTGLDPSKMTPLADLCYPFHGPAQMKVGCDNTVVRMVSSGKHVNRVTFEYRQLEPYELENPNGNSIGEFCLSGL

[4] = molecular target: T1, Corticotropin-releasing factor receptor 2/Corticotropin-releasing factor-binding protein; test: activators of CRF receptor 2 with binding protein – uHTS hits, confirmation (AID 602473); type: functional; conditions: read-out: EC50_Mean
[5] = CRF-BP/CRF-R2 complex antagonists, dose response, cell-based, uHTS hits, 384-well (AID 651639); type: functional, Homo sapiens; conditions: read-out: IC50_Mean
[6] = molecular target: T2, Sentrin-specific protease 8 (Homo sapiens, UniProt Q96LD8); test: SENP8 protease inhibitors, SAR follow-up, biochemical, luminescence (AID 504501); type: functional
T2 sequence (Q96LD8 whole entry): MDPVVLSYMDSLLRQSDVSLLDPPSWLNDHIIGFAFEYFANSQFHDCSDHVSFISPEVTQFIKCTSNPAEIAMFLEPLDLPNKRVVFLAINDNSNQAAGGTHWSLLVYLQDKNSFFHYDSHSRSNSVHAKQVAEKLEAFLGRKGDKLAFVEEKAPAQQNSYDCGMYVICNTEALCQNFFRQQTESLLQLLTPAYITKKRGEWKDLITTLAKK

[7] = molecular target: T3, Caspase-3 (Homo sapiens, UniProt P42574); test: SAR Analysis of small molecule inhibitors of Sentrin-specific proteases (SENPs) using a Caspase-3 Selectivity assay. [Related pubchem assays (depositor defined):AID2540, AID2599, AID434973, AID489001]; type: functional
T3 sequence (P42574 whole entry): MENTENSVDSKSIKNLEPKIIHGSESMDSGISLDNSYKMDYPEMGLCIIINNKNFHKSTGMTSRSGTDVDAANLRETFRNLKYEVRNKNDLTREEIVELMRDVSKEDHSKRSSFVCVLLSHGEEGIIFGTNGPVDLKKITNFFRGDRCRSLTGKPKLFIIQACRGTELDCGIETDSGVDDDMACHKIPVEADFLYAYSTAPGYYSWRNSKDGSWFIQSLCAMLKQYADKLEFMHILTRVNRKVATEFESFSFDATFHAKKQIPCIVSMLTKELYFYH

[8] = molecular target: T4, Sentrin-specific protease 6 (Homo sapiens, UniProt Q9GZR1); test: SAR Analysis of small molecule inhibitors of Sentrin-specific protease 6 (SENP6) using a Luminescent assay. [Related pubchem assays (depositor defined):AID2582, AID2599]; type: functional
T4 sequence (Q9GZR1 whole entry): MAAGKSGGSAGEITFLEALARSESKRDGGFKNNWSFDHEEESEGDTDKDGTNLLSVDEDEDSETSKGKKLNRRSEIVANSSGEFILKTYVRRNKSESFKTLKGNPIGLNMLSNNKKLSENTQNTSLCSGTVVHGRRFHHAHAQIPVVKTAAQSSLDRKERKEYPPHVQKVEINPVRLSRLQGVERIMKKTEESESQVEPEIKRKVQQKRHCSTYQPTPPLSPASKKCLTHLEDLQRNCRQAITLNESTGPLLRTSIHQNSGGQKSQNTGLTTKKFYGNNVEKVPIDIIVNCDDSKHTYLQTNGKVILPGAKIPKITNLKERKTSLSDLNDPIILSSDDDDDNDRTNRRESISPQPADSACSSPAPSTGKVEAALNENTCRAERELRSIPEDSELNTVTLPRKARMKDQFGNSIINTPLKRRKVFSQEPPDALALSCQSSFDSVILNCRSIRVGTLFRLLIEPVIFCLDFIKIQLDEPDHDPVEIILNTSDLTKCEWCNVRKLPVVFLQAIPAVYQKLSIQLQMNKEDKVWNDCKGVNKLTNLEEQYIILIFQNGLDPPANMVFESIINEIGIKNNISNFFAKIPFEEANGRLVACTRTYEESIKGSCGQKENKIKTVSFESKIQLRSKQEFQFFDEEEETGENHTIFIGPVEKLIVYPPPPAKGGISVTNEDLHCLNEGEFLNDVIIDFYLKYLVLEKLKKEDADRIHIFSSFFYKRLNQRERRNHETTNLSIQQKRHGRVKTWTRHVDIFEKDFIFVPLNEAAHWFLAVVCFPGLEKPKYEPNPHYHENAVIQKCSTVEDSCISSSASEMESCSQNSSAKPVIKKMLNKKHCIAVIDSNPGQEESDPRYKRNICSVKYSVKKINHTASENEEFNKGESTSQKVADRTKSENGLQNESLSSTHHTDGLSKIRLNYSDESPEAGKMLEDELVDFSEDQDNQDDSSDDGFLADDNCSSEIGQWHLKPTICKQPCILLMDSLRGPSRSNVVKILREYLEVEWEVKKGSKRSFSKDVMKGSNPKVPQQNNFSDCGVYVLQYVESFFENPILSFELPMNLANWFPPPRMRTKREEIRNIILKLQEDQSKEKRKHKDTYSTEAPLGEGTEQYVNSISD

[9] = molecular target: T5, Sentrin-specific protease 7 (Homo sapiens, UniProt Q9BQF6); test: SENP7 protease inhibitors, SAR follow-up, biochemical, luminescence (AID 504497); type: functional
T5 sequence (Q9BQF6 whole entry): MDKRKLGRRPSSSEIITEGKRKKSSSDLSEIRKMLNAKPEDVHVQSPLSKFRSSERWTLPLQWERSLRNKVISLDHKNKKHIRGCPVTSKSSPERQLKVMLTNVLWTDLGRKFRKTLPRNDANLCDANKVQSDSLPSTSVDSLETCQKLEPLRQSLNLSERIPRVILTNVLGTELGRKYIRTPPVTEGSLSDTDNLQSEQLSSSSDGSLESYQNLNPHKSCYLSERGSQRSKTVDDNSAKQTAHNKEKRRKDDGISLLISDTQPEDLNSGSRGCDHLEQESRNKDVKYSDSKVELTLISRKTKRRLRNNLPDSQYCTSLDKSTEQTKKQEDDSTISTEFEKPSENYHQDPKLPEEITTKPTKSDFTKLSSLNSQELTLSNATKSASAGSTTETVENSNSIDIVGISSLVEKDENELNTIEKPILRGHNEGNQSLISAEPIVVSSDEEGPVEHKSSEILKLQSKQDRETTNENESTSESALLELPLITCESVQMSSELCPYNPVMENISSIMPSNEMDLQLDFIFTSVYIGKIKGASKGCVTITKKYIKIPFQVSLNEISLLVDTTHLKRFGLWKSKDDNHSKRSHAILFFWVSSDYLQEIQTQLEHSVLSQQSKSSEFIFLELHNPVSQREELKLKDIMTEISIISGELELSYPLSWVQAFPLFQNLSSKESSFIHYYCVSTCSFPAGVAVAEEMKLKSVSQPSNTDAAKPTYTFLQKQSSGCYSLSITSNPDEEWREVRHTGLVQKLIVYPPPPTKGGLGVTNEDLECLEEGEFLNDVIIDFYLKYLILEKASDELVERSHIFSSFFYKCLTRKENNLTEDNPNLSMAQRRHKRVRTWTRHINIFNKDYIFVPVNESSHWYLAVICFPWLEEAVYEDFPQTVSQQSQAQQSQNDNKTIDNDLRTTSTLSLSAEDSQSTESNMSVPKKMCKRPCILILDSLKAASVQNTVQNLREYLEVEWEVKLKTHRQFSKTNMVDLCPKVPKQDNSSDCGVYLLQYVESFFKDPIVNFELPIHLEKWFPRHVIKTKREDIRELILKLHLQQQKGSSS

[10] = molecular target: T6, Insulin-degrading enzyme (Homo sapiens, UniProt P14735); test: activators of recombinant IDE enzyme, dose response, counter-screen for IDE activator project, biochemical, fluorescence polarization (AID 588681)
T6 sequence (P14735 whole entry): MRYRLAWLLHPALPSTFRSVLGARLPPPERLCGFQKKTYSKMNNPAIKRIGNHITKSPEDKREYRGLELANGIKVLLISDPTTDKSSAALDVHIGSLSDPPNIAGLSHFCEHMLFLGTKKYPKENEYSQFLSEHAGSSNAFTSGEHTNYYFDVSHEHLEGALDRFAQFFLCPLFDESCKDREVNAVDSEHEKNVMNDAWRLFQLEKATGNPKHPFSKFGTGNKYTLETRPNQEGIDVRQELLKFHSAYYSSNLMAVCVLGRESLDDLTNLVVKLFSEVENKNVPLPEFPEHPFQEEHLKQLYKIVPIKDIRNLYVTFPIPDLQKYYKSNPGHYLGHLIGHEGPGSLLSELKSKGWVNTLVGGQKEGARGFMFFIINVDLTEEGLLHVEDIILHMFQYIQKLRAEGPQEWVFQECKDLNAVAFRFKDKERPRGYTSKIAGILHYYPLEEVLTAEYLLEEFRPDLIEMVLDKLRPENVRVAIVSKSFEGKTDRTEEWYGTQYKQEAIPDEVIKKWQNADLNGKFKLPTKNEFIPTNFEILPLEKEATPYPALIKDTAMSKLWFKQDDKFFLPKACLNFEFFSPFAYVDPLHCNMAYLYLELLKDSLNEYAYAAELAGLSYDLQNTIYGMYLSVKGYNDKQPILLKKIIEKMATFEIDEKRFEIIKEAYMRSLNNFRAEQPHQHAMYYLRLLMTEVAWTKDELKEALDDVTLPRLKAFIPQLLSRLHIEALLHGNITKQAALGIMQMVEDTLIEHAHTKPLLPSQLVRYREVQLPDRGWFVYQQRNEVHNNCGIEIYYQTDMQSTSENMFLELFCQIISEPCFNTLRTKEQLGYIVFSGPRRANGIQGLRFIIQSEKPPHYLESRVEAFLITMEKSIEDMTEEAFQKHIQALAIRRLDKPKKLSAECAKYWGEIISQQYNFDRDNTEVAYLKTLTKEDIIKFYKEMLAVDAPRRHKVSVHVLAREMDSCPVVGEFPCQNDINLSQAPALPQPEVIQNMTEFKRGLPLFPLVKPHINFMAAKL

[11] = molecular target: T6, Insulin-degrading enzyme; test: activators of endogenous IDE in HEK cells, dose response, cell-based, fluorescence polarization (AID 588439); type: functional
[12] = tested on: HEK293; test: HEK cell cytotoxicity by LDH release, dose response, cytotoxicity control for IDE activator project, fluorescence, HEK cells (AID 588440); type: functional, cell-based; conditions: Homo sapiens;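 also: cytotoxicity by LDH release measuring loss of membrane integrity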
[13] = tested on: HEK293; test: optical interference in Abeta FP readout, dose response, artefact control for IDE activator project, biochemical, fluorescence polarization (AID 588442); type: functional, cell-based; conditions: Homo sapiens

Latent membrane protein 1, sequence (P03230 whole entry): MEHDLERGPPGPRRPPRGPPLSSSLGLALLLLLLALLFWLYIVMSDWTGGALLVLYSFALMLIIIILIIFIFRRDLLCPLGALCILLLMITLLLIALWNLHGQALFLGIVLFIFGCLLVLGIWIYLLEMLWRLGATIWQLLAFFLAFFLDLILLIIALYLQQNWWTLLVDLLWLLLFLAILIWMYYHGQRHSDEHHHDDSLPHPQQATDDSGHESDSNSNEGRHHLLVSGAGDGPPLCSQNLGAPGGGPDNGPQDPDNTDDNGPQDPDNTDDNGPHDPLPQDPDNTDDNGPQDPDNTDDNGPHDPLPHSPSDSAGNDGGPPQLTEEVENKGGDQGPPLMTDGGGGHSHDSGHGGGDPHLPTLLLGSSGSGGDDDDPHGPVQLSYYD

CC(C)c1cc(NC(=O)c2ccccc2)cc(C(C)C)c1O
AC50 [1]: 98.1 µM (active)
AC50 [2]: 30 µM (active)
IC50 [3]: < 0.368 µM (active)
EC50 [4]: > 53 µM (inactive)
IC50 [5]: 5.7 µM (active)

NC(=O)c1ccc(OC2CSC2)cc1
IC50 [6]: 7.5 µM (active)
IC50 [7]: > 99 µM (inactive)
IC50 [8]: 18.7 µM (active)
IC50 [9]: > 99 µM (inactive)

O=C(Cc1cccc(C(F)(F)F)c1)N(c1ccccc1)c1nc(-c2ccccc2)ns1
IC50 [6]: > 99 µM (inactive)
IC50 [7]: > 99 µM (inactive)
IC50 [8]: > 99 µM (inactive)
IC50 [9]: > 99 µM (inactive)

C[C@@H]1O[C@@H](O[C@H]2[C@H](O[C@H]3C[C@]4(C)[C@H](CC(O)C5[C@@H]([C@]6(C)CC[C@@H](C(C)(C)O)O6)CC[C@]54C)[C@@]4(C)CC[C@H](O)C(C)(C)C34)O[C@H](CO)[C@@H](O)[C@@H]2O)[C@H](O)[C@H](O)[C@H]1O (some centres not stated)
EC50 [10]: > 54.7 µM (inactive)
EC50 [11]: > 54.7 µM (inactive)
IC50 [12]: > 89.2 µM (inactive)
EC50 [13]: > 54.7 µM (inactive)
